According to ChEMBL document CHEMBL1201862, “PubChem BioAssay data set” (2004):
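Compound exposure: 48 hours, 5 concentrations, 96-well plates. GI50: concentration for 50% inhibition of growth.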 Activity calls are given as the source filed them. Cut-off read from the data, not from the text of the source: active = GI50 up to about 1.1 µM and inactive = higher.

Tests used:
Assay in all cases: NCI-60 cell line screen, 48 h
HOP-62 = tested on: HOP-62
OVCAR-3 = tested on: OVCAR-3
SK-MEL-5 = tested on: SK-MEL-5
NCI-H522 = tested on: NCI-H522
CAKI-1 = tested on: CAKI-1
HCT-116 = tested on: HCT-116
A498 = tested on: A498
DU-145 = tested on: DU-145
NCI-H23 = tested on: NCI-H23
CCRF-CEM = tested on: CCRF-CEM
SK-OV-3 = tested on: SK-OV-3
ACHN = tested on: ACHN
HCT-15 = tested on: HCT-15
EKVX = tested on: EKVX
HCC 2998 = tested on: HCC 2998
SN12C = tested on: SN12C
OVCAR-8 = tested on: OVCAR-8
HT-29 = tested on: HT-29
SK-MEL-28 = tested on: SK-MEL-28
PC-3 = tested on: PC-3
OVCAR-4 = tested on: OVCAR-4
SR = tested on: SR
NCI/ADR-RES = tested on: NCI/ADR-RES
A549 = tested on: A549
RPMI-8226 = tested on: RPMI-8226
MDA-N = tested on: MDA-N
SF-295 = tested on: SF-295
KM12 = tested on: KM12
NCI-H226 = tested on: NCI-H226
UACC-62 = tested on: UACC-62
Hs-578T = tested on: Hs-578T
NCI-H460 = tested on: NCI-H460
U-251 = tested on: U-251
IGROV-1 = tested on: IGROV-1
T47D = tested on: T47D
RXF 393 = tested on: RXF 393
M14 = tested on: M14
SK-MEL-2 = tested on: SK-MEL-2
SNB-19 = tested on: SNB-19
LOX IMVI = tested on: LOX IMVI
UO-31 = tested on: UO-31
MCF7 = tested on: MCF7
SF-539 = tested on: SF-539
MOLT-4 = tested on: MOLT-4
UACC-257 = tested on: UACC-257
BT-549 = tested on: BT-549
TK-10 = tested on: TK-10
SW-620 = tested on: SW-620
MDA-MB-435 = tested on: MDA-MB-435
OVCAR-5 = tested on: OVCAR-5
786-0 = tested on: 786-0
COLO 205 = tested on: COLO 205
MDA-MB-231 = tested on: MDA-MB-231
K562 = tested on: K562
HOP-92 = tested on: HOP-92
SF-268 = tested on: SF-268
Malme-3M = tested on: Malme-3M

O=C1CC(c2cccc(Cl)c2)Nc2ccc(N3CCCC3)cc21 (stereo not drawn)
GI50 (HOP-62): 0.419 µM (active)
GI50 (OVCAR-3): 0.158 µM (active)
GI50 (SK-MEL-5): 0.0305 µM (active)
GI50 (NCI-H522): 0.0191 µM (active)
GI50 (CAKI-1): 0.0608 µM (active)
GI50 (HCT-116): 0.0385 µM (active)
GI50 (A498): 0.01 µM (active)
GI50 (DU-145): 0.0391 µM (active)
GI50 (NCI-H23): 0.278 µM (active)
GI50 (CCRF-CEM): 0.0302 µM (active)
GI50 (SK-OV-3): 0.193 µM (active)
GI50 (ACHN): 0.0524 µM (active)
GI50 (HCT-15): 203 nM
GI50 (EKVX): 0.0658 µM (active)
GI50 (HCC 2998): 0.335 µM (active)
GI50 (SN12C): 0.0552 µM (active)
GI50 (OVCAR-8): 0.0522 µM (active)
GI50 (HT-29): 0.0791 µM (active)
GI50 (SK-MEL-28): 0.189 µM (active)
GI50 (PC-3): 0.0343 µM (active)
GI50 (OVCAR-4): 6.89 µM (inactive)
GI50 (SR): 0.0304 µM (active)
GI50 (NCI/ADR-RES): 0.0274 µM (active)
GI50 (A549): 0.0494 µM (active)
GI50 (RPMI-8226): 0.0802 µM (active)
GI50 (MDA-N): 0.00359 µM (active)
GI50 (SF-295): 0.0439 µM (active)
GI50 (KM12): 0.361 µM (active)
GI50 (NCI-H226): 0.0721 µM (active)
GI50 (UACC-62): 0.0537 µM (active)
GI50 (Hs-578T): 0.01 µM (active)
GI50 (NCI-H460): 0.0506 µM (active)
GI50 (U-251): 0.0314 µM (active)
GI50 (IGROV-1): 0.13 µM (active)
GI50 (T47D): > 100 µM (inactive)
GI50 (RXF 393): 0.0224 µM (active)
GI50 (M14): 0.028 µM (active)
GI50 (SK-MEL-2): 0.0546 µM (active)
GI50 (SNB-19): 0.0332 µM (active)
GI50 (LOX IMVI): 0.0518 µM (active)
GI50 (UO-31): 0.0603 µM (active)
GI50 (MCF7): 0.555 µM (active)
GI50 (SF-539): 0.0263 µM (active)
GI50 (MOLT-4): 0.0802 µM (active)
GI50 (UACC-257): 0.0687 µM (active)
GI50 (BT-549): 1.29 µM (inactive)
GI50 (TK-10): 0.942 µM (active)
GI50 (SW-620): 0.0266 µM (active)
GI50 (MDA-MB-435): 0.00484 µM (active)
GI50 (OVCAR-5): 0.526 µM (active)
GI50 (786-0): 0.0577 µM (active)
GI50 (COLO 205): 0.194 µM (active)
GI50 (MDA-MB-231): 0.366 µM (active)
GI50 (K562): 0.0863 µM (active)
GI50 (HOP-92): 0.373 µM (active)
GI50 (SF-268): 0.115 µM (active)

Nc1ncnc2c1cnn2COCC(O)CO (stereo not drawn)
GI50 (HOP-62): > 100 µM (inactive)
GI50 (OVCAR-3): > 100 µM (inactive)
GI50 (SK-MEL-5): > 100 µM (inactive)
GI50 (NCI-H522): > 100 µM (inactive)
GI50 (CAKI-1): > 100 µM (inactive)
GI50 (HCT-116): > 100 µM (inactive)
GI50 (Malme-3M): > 100 µM (inactive)
GI50 (A498): > 100 µM (inactive)
GI50 (DU-145): > 100 µM (inactive)
GI50 (NCI-H23): > 100 µM (inactive)
GI50 (CCRF-CEM): > 100 µM (inactive)
GI50 (SK-OV-3): > 100 µM (inactive)
GI50 (ACHN): > 100 µM (inactive)
GI50 (HCT-15): > 100000 nM
GI50 (EKVX): > 100 µM (inactive)
GI50 (HCC 2998): > 100 µM (inactive)
GI50 (SN12C): > 100 µM (inactive)
GI50 (OVCAR-8): > 100 µM (inactive)
GI50 (HT-29): > 100 µM (inactive)
GI50 (SK-MEL-28): > 100 µM (inactive)
GI50 (PC-3): > 100 µM (inactive)
GI50 (OVCAR-4): > 100 µM (inactive)
GI50 (SR): > 100 µM (inactive)
GI50 (NCI/ADR-RES): > 100 µM (inactive)
GI50 (A549): > 100 µM (inactive)
GI50 (RPMI-8226): > 100 µM (inactive)
GI50 (MDA-N): > 100 µM (inactive)
GI50 (SF-295): > 100 µM (inactive)
GI50 (KM12): > 100 µM (inactive)
GI50 (NCI-H226): > 100 µM (inactive)
GI50 (UACC-62): > 100 µM (inactive)
GI50 (Hs-578T): > 100 µM (inactive)
GI50 (NCI-H460): > 100 µM (inactive)
GI50 (U-251): > 100 µM (inactive)
GI50 (IGROV-1): > 100 µM (inactive)
GI50 (T47D): > 100 µM (inactive)
GI50 (RXF 393): > 100 µM (inactive)
GI50 (M14): > 100 µM (inactive)
GI50 (SK-MEL-2): > 100 µM (inactive)
GI50 (SNB-19): > 100 µM (inactive)
GI50 (LOX IMVI): > 100 µM (inactive)
GI50 (UO-31): > 100 µM (inactive)
GI50 (MCF7): > 100 µM (inactive)
GI50 (SF-539): > 100 µM (inactive)
GI50 (MOLT-4): > 100 µM (inactive)
GI50 (UACC-257): > 100 µM (inactive)
GI50 (BT-549): > 100 µM (inactive)
GI50 (TK-10): > 100 µM (inactive)
GI50 (SW-620): > 100 µM (inactive)
GI50 (MDA-MB-435): > 100 µM (inactive)
GI50 (OVCAR-5): > 100 µM (inactive)
GI50 (786-0): > 100 µM (inactive)
GI50 (COLO 205): > 100 µM (inactive)
GI50 (MDA-MB-231): > 100 µM (inactive)
GI50 (K562): > 100 µM (inactive)
GI50 (HOP-92): > 100 µM (inactive)
GI50 (SF-268): > 100 µM (inactive)
